Tests used:
phosphorylated MLKL = experiment: Western blot of total and phosphorylated MLKL in brains of Nec-1S treated 5xFAD mice; assay type: in vivo, mouse; settings: 8-month-old 5xFAD mice; 10 mg/kg i.p. once, then 0.5 mg/ml in drinking water for 21 days; vs vehicle
Protocol: Specifically, mice receive a single intraperitoneal injection of 10 mg/kg Nec1s after which they were given Nec1S in their drinking water at a concentration of 0.5 mg/ml for 21 days.
Protein Extraction: Human temporal gyms tissue samples (0.1 g/sample) were extracted in sequential buffers, from lower to higher detergent strength. Briefly, the samples were homogenized in TBS (50 mM Tris-HCl, pH 7.4, 175 mM NaCl, 5 mM EDTA, 1 mM N-ethyl-maleimide) containing protease inhibitors (Roche) and phosphatase inhibitors (Millipore). The protein extract was centrifuged at 120,000 g for 30 minutes at 4° C. The resulting supernatant represented the TBS soluble fraction. Pellets were homogenized in TBS/1% Triton X-100 and spun at 1000 g for 10 minutes at 4° C. The supernatant represented the Triton soluble fraction. Pellets were washed in TBS/1M sucrose and then homogenized in RIPA buffer. […]
Western blot and ELISA: The proteins were run using reducing conditions in precast gels (Thermo Fisher Scientific) and transferred to nitrocellulose membranes (iBlot, Thermo Fisher Scientific). […] The blots were then washed with TBS-T, and imaged/quantified using a LICOR Odyssey CLx (LI-COR Biosciences) attached to a Dell computer (OptiPlex 7010) running Windows 7 and Image Studio (version 1.0.11, LI-COR Biosciences). […]

[1] = tested on: primary cortical neurons isolated from APP/PS1 and wild type mice; experiment: GFP fluorescence in live AAV-GFP infected primary cortical neurons treated with Nec1S or vehicle; assay type: cell-based, mouse; settings: DIV 15; 10 μM at DIV 7 and 11; APP/PS1-veh vs the other three groups incl. APP/PS1-Nec1S
Protocol: At DIV 1, we infected primary cortical neurons isolated from APP/PS1 and wild type mice with an adeno-associated virus (AAV) expressing the green fluorescent protein (GFP) under the neuronal promotor CamKII. At DIV 7 and 11, neurons from the two genotypes were treated with 10 μM Nec1S or vehicle. We then measured GFP fluorescence in live cells as an indication of live neurons.
Primary neuronal cultures—For the GFP experiments: Primary neurons were isolated from APP/PS1 and NonTg Po pups. The tissue was then dissociated in Neurobasal media (Thermo Fisher Scientific) and spun down for 3 minutes at 5,000 g at 4° C. The supernatant was discarded and the pellet was re-suspended in 1 ml of Neurobasal media supplemented with B27 (Thermo Fisher Scientific). An equal volume per each sample was seeded into a Poly-D-Lysine-coated (10 mg/mL, Sigma-Aldrich) black 96-well tissue culture plate. […] Neurons were treated for a total of 15 days and the GFP fluorescence was measured every 4 days. […] All fluorescent measurements (excitation 488 nm, emission 509 nm) were performed using the Synergy HT multi-mode microplate reader with the Gen5 software (BioTek, Winooski, Vt.). The reader was pre-heated to 37° C. to maintain optimal conditions for the neurons during the measurements. […]

CN1C(=O)NC(Cc2c[nH]c3c(Cl)cccc23)C1=O (centres unmarked) [Nec1S, 5-((7-chloro-1 H-indol-3-yl)methyl)-3-methylimidazolidine-2,4-dione]
pMLKL/MLKL ratio (phosphorylated MLKL): lower pMLKL/MLKL ratio | GFP fluorescence in live cells (indication of live neurons) [1]: APP/PS1-veh group had lower GFP levels compared to the other three groups
